IC50 data for 25 compounds are collected here from US20150080438A1, “6,7-Dihydro-5H-benzo[7]annulene derivatives, processes for their preparation, pharmaceutical products comprising them and their use for preparing medicaments” (Bayer Intellectual Property GmbH, priority 2011, published 2015).

Each structure is given as a SMILES string.

The target in the assay is T1, oestrogen receptor (ER) (Homo sapiens, UniProt P03372).
T1 construct: These MVLN cells express, along with the functional oestrogen receptor (ER), a reporter construct; endogenous in cells; host or cells: MVLN cells (MCF7 derivative with ER-responsive luciferase reporter)
T1 sequence (P03372 1-595): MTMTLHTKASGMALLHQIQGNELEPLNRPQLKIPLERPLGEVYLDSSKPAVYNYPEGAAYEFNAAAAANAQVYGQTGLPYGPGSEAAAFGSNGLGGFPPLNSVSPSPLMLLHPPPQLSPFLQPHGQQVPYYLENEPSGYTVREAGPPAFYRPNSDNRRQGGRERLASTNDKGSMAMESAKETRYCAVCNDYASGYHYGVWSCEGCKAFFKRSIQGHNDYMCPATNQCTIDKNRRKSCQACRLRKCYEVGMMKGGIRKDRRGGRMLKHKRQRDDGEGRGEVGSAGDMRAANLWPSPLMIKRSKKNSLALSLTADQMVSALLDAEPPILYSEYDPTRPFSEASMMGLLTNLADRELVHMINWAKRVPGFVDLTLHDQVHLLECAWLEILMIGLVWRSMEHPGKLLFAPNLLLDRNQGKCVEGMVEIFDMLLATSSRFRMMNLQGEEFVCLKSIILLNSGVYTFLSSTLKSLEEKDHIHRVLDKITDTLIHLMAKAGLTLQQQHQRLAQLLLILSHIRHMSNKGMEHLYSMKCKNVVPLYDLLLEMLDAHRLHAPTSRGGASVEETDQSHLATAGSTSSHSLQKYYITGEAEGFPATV
The assay can be described thus: Anti-oestrogenic action in MVLN cells (inhibition of estradiol-induced luciferase, transactivation antagonism). The following applies: inhibition of estradiol-induced luciferase activity, read-out: Anti-oestrogenic action in vitro: MVLN transactivation antagonism IC50. It is filed as cell-based. The procedure, abridged: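 MCF7-derived MVLN cells carrying an ER-driven luciferase reporter; test compounds applied with estradiol, and anti-oestrogenic action scored as inhibition of the estradiol-induced luciferase signal.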

As for `CN(CCCCCCC1=C(c2ccccc2)CCCc2cc(O)ccc21)CCCS(=O)(=O)CCC(F)(F)F` [Example 60, 9-[6-(Methyl{3-[(3,3,3-trifluoropropyl)sulphonyl]propyl}amino)hexyl]-8-phenyl-6,7-dihydro-5H-benzo[7]annulen-3-ol], the IC50 came to 26 nM.
The figure for `CN(CCCCCCC1=C(c2ccccc2)CCCc2cc(O)ccc21)CCCS(=O)(=O)CCC(F)(F)C(F)(F)F` [Example 62, 9-[6-(Methyl{3-[(3,3,4,4,4-pentafluorobutyl)sulphonyl]propyl}amino)hexyl]-8-phenyl-6,7-dihydro-5H-benzo[7]annulen-3-ol] is 12 nM; for `CN(CCCCCCC1=C(c2ccccc2)CCCc2cc(O)ccc21)CCCS(=O)(=O)CCCC(F)(F)C(F)(F)F` [Example 63, 9-[6-(Methyl{3-[(4,4,5,5,5-pentafluoropentyl)sulphonyl]propyl}amino)hexyl]-8-phenyl-6,7-dihydro-5H-benzo[7]annulen-3-ol] it is 9 nM.
For the compound `CCN(CCCCCCC1=C(c2cccc(O)c2)CCCc2cc(O)ccc21)CCCS(=O)(=O)CCC(F)(F)F` [Example 65, 9-[6-(Ethyl{3-[(3,3,3-trifluoropropyl)sulphonyl]propyl}amino)hexyl]-8-(3-hydroxyphenyl)-6,7-dihydro-5H-benzo[7]annulen-3-ol], the half-inhibitory concentration (IC50) amounted to 6 nM.
Then `CN(CCCCCCC1=C(c2ccccc2)CCCc2cc(O)ccc21)CCCCS(=O)(=O)CCCC(F)(F)C(F)(F)F` [Example 67, 9-[6-(Methyl{4-[(4,4,5,5,5-pentafluoropentyl)sulphonyl]butyl}amino)hexyl]-8-phenyl-6,7-dihydro-5H-benzo[7]annulen-3-ol], with 3 nM; and `CCN(CCCCCCC1=C(c2ccccc2)CCCc2cc(O)ccc21)CCCS(=O)(=O)CCCC(F)(F)C(F)(F)F` [Example 69, 9-[6-(Ethyl{3-[(4,4,5,5,5-pentafluoropentyl)sulphonyl]propyl}amino)hexyl]-8-phenyl-6,7-dihydro-5H-benzo[7]annulen-3-ol], with 6 nM.
Then `O=S(=O)(CCCN(CCO)CCCCCCC1=C(c2ccccc2)CCCc2cc(O)ccc21)CCCC(F)(F)C(F)(F)F` [Example 71, 9-{6-[(2-Hydroxyethyl){3-[(4,4,5,5,5-pentafluoropentyl)sulphonyl]propyl}amino]hexyl}-8-phenyl-6,7-dihydro-5H-benzo[7]annulen-3-ol], with 13 nM; and `O=S(=O)(CCCN(CCCO)CCCCCCC1=C(c2ccccc2)CCCc2cc(O)ccc21)CCCC(F)(F)C(F)(F)F` [Example 73, 9-{6-[(3-Hydroxypropyl){3-[(4,4,5,5,5-pentafluoropentyl)sulphonyl]propyl}amino]hexyl}-8-phenyl-6,7-dihydro-5H-benzo[7]annulen-3-ol], with 17 nM.
As to `CC(C)(O)CN(CCCCCCC1=C(c2ccccc2)CCCc2cc(O)ccc21)CCCS(=O)(=O)CCCC(F)(F)C(F)(F)F` [Example 75, 9-{6-[(2-Hydroxy-2-methylpropyl){3-[(4,4,5,5,5-pentafluoropentyl)sulphonyl]propyl}amino]hexyl}-8-phenyl-6,7-dihydro-5H-benzo[7]annulen-3-01], the IC50 stood at 14 nM.
Then `CCN(CCCCCCC1=C(c2ccccc2)CCCc2cc(O)ccc21)CCCS(=O)(=O)CCC(F)(F)F` [Example 77, 9-[6-(Ethyl{3-[(3,3,3-trifluoropropyl)sulphonyl]propyl}amino)hexyl]-8-phenyl-6,7-dihydro-5H-benzo[7]annulen-3-ol], with 61 nM.
For `O=S(=O)(CCCN(CCO)CCCCCCC1=C(c2ccccc2)CCCc2cc(O)ccc21)CCC(F)(F)F` [Example 79, 9-{6-[(2-Hydroxyethyl){3-[(3,3,3-trifluoropropyl)sulphonyl]propyl}amino]hexyl}-8-phenyl-6,7-dihydro-5H-benzo[7]annulen-3-ol], the IC50 amounted to 9 nM.
The figure for `O=S(=O)(CCCN(CCCO)CCCCCCC1=C(c2ccccc2)CCCc2cc(O)ccc21)CCC(F)(F)F` [Example 81, 9-{6-[(3-Hydroxypropyl){3-[(3,3,3-trifluoropropyl)sulphonyl]propyl}amino]hexyl}-8-phenyl-6,7-dihydro-5H-benzo[7]annulen-3-ol] is 39 nM; for `CC(C)(O)CN(CCCCCCC1=C(c2ccccc2)CCCc2cc(O)ccc21)CCCS(=O)(=O)CCC(F)(F)F` [Example 83, 9-{6-[(2-Hydroxy-2-methylpropyl){3-[(3,3,3-trifluoropropyl)sulphonyl]propyl}amino]hexyl}-8-phenyl-6,7-dihydro-5H-benzo[7]annulen-3-ol] it is 7 nM; for `CN(CCCCCC1=C(c2ccccc2)CCCc2cc(O)ccc21)CCCCS(=O)(=O)CCCC(F)(F)C(F)(F)F` [Example 85, 9-[5-(Methyl{4-[(4,4,5,5,5-pentafluoropentyl)sulphonyl]butyl}amino)pentyl]-8-phenyl-6,7-dihydro-5H-benzo[7]annulen-3-ol] it is 40 nM.
On to `CCN(CCCCCCC1=C(c2cccc(O)c2)CCCc2cc(O)ccc21)CCCS(=O)(=O)CCCC(F)(F)C(F)(F)F` [Example 90, 9-[6-(Ethyl{3-[(4,4,5,5,5-pentafluoropentyl)sulphonyl]propyl}amino)hexyl]-8-(3-hydroxyphenyl)-6,7-dihydro-5H-benzo[7]annulen-3-ol], for which the IC50 worked out at 2 nM.
The figure for `O=S(=O)(CCCN(CCO)CCCCCCC1=C(c2cccc(O)c2)CCCc2cc(O)ccc21)CCCC(F)(F)C(F)(F)F` [Example 91, 9-{6-[(2-Hydroxyethyl){3-[(4,4,5,5,5-pentafluoropentyl)sulphonyl]propyl}amino]hexyl}-8-(3-hydroxyphenyl)-6,7-dihydro-5H-benzo[7]annulen-3-ol] is 3 nM; for `O=S(=O)(CCCN(CCCO)CCCCCCC1=C(c2cccc(O)c2)CCCc2cc(O)ccc21)CCCC(F)(F)C(F)(F)F` [Example 92, 8-(3-Hydroxyphenyl)-9-{6-[(3-hydroxypropyl){3-[(4,4,5,5,5-mpentafluoropentyl)sulphonyl]propyl}amino]hexyl}-6,7-dihydro-5H-benzo[7]annulen-3-ol] it is 1 nM.
Consider `CC(C)(O)CN(CCCCCCC1=C(c2cccc(O)c2)CCCc2cc(O)ccc21)CCCS(=O)(=O)CCCC(F)(F)C(F)(F)F` [Example 93, 9-{6-[(2-Hydroxy-2-methylpropyl){3-[(4,4,5,5,5-pentafluoropentyl)sulphonyl]propyl}amino]hexyl}-8-(3-hydroxyphenyl)-6,7-dihydro-5H-benzo[7]annulen-3-ol], for which the IC50 was determined as 1 nM.
The figure for `O=S(=O)(CCCN(CCO)CCCCCCC1=C(c2cccc(O)c2)CCCc2cc(O)ccc21)CCC(F)(F)F` [Example 98, 9-{6-[(2-Hydroxyethyl){3-[(3,3,3-trifluoropropyl)sulphonyl]propyl}amino]hexyl}-8-(3-hydroxyphenyl)-6,7-dihydro-5H-benzo[7]annulen-3-ol] is 3 nM; for `O=S(=O)(CCCN(CCCO)CCCCCCC1=C(c2cccc(O)c2)CCCc2cc(O)ccc21)CCC(F)(F)F` [Example 99, 8-(3-Hydroxyphenyl)-9-{6-[(3-hydroxypropyl){3-[(3,3,3-trifluoropropyl)sulphonyl]propyl}amino]hexyl}-6,7-dihydro-5H-benzo[7]annulen-3-ol] it is 8 nM; for `CC(C)(O)CN(CCCCCCC1=C(c2cccc(O)c2)CCCc2cc(O)ccc21)CCCS(=O)(=O)CCC(F)(F)F` [Example 100, 9-{6-[(2-Hydroxy-2-methylpropyl){3-[(3,3,3-trifluoropropyl)sulphonyl]propyl}amino]hexyl}-8-(3-hydroxyphenyl)-6,7-dihydro-5H-benzo[7]annulen-3-ol] it is 3 nM.
Turning to `CN(CCCCCCC1=C(c2ccc(F)c(O)c2)CCCc2cc(O)c(F)cc21)CCCS(=O)(=O)CCCC(F)(F)C(F)(F)F` [Example 101, 2-Fluoro-8-(4-fluoro-3-hydroxyphenyl)-9-[6-(methyl{3-[(4,4,5,5,5-pentafluoropentyl)sulphonyl]propyl}amino)hexyl]-6,7-dihydro-5H-benzo[7]annulen-3-ol], the half-maximal inhibitory concentration (IC50) came to 3 nM.
Turning to `CN(CCCCCCC1=C(c2ccccc2)CCCc2c1ccc(O)c2Cl)CCCCS(=O)(=O)CCCC(F)(F)C(F)(F)F` [Example 103, 4-Chloro-9-[6-(methyl{4-[(4,4,5,5,5-pentafluoropentyl)sulphonyl]butyl}amino)hexyl]-8-phenyl-6,7-dihydro-5H-benzo[7]annulen-3-ol], the IC50 is 26 nM.
Then `COCCN(CCCCCCC1=C(c2ccc(F)c(O)c2)CCCc2cc(O)ccc21)CCCS(=O)(=O)CCCC(F)(F)C(F)(F)F` [Example 105, 8-(4-Fluoro-3-hydroxyphenyl)-9-{6-[(2-methoxyethyl){3-[(4,4,5,5,5-pentafluoropentyl)sulphonyl]propyl}amino]hexyl}-6,7-dihydro-5H-benzo[7]annulen-3-ol], with 2 nM; and `COCCN(CCCCCCC1=C(c2cccc(O)c2)CCCc2cc(O)ccc21)CCCS(=O)(=O)CCCC(F)(F)C(F)(F)F` [Example 106, 8-(3-Hydroxyphenyl)-9-{6-[(2-methoxyethyl){3-[(4,4,5,5,5-pentafluoropentyl)sulphonyl]propyl}amino]hexyl}-6,7-dihydro-5H-benzo[7]annulen-3-ol], with 1 nM.

In general, IC50 refers to the concentration at which inhibition is half-maximal.
